Columns and labels:
[1] = biological target: Src kinase SH3 domain protein (Homo sapiens (Human), UniProt P12931); assay: Surface plasmon resonance (SPR) determination of dissociation constants with SH3 protein; type: binding; conditions: SH3 protein coupled to CM5 chip
Method: 1. Experimental method: Surface plasmon resonance test was carried out on BIACORE T200 instrument (GE Company). Fresh purified grade Src kinase SH3 domain protein (concentration 2 mg/ml) was diluted to 0.1 mg/ml with 10 mM CH3COONa (pH 4.2) and then SH3 protein was coupled to the CM5 chip by standard amino coupling methods. The compounds of the invention were diluted in a gradient using a buffer solution (20 mM Tris-HCl, PH 8.0, 100 mM NaCl) for 60 seconds and dissociated for 120 seconds at a flow rate of […], respectively. The changes in response values over time were recorded and analyzed by the BIA Evaluation Software (GE Healthcare) program to obtain the dissociation constants KD for the different compounds with SH3 protein.
2. Experimental results and conclusions: The dissociation constants KD of different compounds and SH3 protein were described in Table 2, and the surface plasmon resonance (SPR) experimental results of some compounds were shown in FIG. 1.

[2] = tested on: platelets on solid phase fibrinogen; assay: Effect of compound on platelet stretching on solid phase fibrinogen; type: cell-based; conditions: 1 h, washed platelets, incubated 60 min at 37° C., read-out: Concentration range for compounds that inhibit platelet stretching on fibrinogen
Method: 1. Experimental method: Firstly, 50 μl fibrinogen (0.1M, diluted with pH 8.3 sodium bicarbonate, 20 μg/ml) was added to 96-well plate, and coated overnight at 4° C. After being washed by PBS for 3 times in the morning, sealed with bovine serum albumin (20 mg/ml) at 37° C. for 60 min, then 100 μl of washed platelet suspension was taken, and added into compounds in each group to make the final concentration 250 μM, and incubated at 37° C. for 60 min. 50 μl of incubated platelets were added to 96-well plate, adhered in a temperature box at 37° C. for 60 min, unadhered platelets were removed by PBS washing for 3 times, and adhered platelets were stably fixed with 4% paraformaldehyde, and washed with PBS for 3 times. Then the platelet membrane was perforated with 0.5% Triton X-100, and then the platelet was stained with 0.5 μg/ml phalloidin-rhodamine for 60 min at 37° C. and washed 3 times (10 min each) with PBS.
2. Experimental results and conclusions: The concentration of different compounds on platelet stretching on fibrinogen was shown in Table 3, and the inhibitory effect of some compounds on platelet stretching was shown in FIG. 2.

Sequence of Src kinase SH3 domain protein (P12931 whole entry, looked up, the tested form may be a part): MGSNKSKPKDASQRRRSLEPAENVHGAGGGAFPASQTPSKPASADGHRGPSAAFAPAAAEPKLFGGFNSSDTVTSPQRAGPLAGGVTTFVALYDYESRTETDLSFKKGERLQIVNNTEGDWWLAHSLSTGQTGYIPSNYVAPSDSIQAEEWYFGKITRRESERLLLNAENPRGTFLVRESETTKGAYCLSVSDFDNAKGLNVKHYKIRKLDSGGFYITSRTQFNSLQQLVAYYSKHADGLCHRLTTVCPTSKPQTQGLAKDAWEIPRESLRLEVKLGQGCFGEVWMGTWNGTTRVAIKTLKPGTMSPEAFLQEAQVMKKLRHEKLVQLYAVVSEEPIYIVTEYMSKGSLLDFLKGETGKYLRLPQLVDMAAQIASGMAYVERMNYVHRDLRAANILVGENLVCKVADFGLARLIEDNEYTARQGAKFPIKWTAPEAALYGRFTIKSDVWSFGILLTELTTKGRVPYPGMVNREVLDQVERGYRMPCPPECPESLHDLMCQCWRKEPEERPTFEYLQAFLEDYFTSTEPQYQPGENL

Compound	Kd [1] [nM]	minimal effective concentration [2] [µM]
CCOC(=O)c1c(CSC(=N)N)n(C)c2ccc3ccccc3c12 [SYY-C062]	< 1000	10 to 100
CCOC(=O)c1c(CSC(=N)N)n(C)c2cc(C3CC4CCC3C4)ccc12 (centres unmarked) [SYY-C063]	< 1000	10 to 100
CCOC(=O)c1c(CNC(=N)N)n(C)c2ccc(-c3ccc4ccccc4c3)cc12 [SYY-C065]	10000 to 100000	10 to 100
CCOC(=O)c1c(CNC(=N)N)n(C)c2cc(-c3ccnc4ccccc34)ccc12 [SYY-C066]	< 1000	10 to 100
CCOC(=O)c1c(CNC(=N)N)n(C)c2cc(-c3cccc4ncccc34)ccc12 [SYY-C067]	< 1000	10 to 100
CCOC(=O)c1c(CNC(=N)N)n(C)c2cc(C3=CCCc4ccccc43)ccc12 [SYY-C068]	1000 to 10000	100 to 250
CCOC(=O)c1c(CNC(=N)N)n(C)c2ccc(-c3cccc4ccccc34)cc12 [SYY-C070]	< 1000	10 to 100
CCOC(=O)c1c(CNC(=N)N)n(C)c2ccc(C3=CCCc4ccccc43)cc12 [SYY-C071]	< 1000	10 to 100
CCOC(=O)c1c(CNC(=N)N)n(C)c2cc(-c3ccc(C)c4ccccc34)ccc12 [SYY-C072]	1000 to 10000	10 to 100
CCOC(=O)c1c(CNC(=N)N)n(C)c2cc(-c3cncc4ccccc34)ccc12 [SYY-C073]	< 1000	10 to 100
CCOC(=O)c1c(CNC(=N)N)n(C)c2cc(-c3cccc4cnccc34)ccc12 [SYY-C074]	10000 to 100000	10 to 100
CCOC(=O)c1c(CNC(=N)N)n(C)c2cc(-c3cccc4cccnc34)ccc12 [SYY-C075]	< 1000	10 to 100
CCOC(=O)c1c(CNC(=N)N)n(C)c2cc(-c3ccc(F)c4ccccc34)ccc12 [SYY-C076]	1000 to 10000	100 to 250
CCOC(=O)c1c(CNC(=N)N)n(C)c2cc(-c3cccc4ccncc34)ccc12 [SYY-C077]	< 1000	10 to 100
CCOC(=O)c1c(CNC(=N)N)n(C)c2cc(-c3c4ccccc4cc4ccccc34)ccc12 [SYY-C078]	< 1000	10 to 100
CCOC(=O)c1c(CNC(=N)N)n(C(C)C)c2cc(-c3cccc4ccccc34)ccc12 [SYY-C079]	< 1000	10 to 100
CCOC(=O)c1c(CNC(=N)N)n(C)c2cc(-c3cccc4cc(C)ccc34)ccc12 [SYY-C080]	< 1000	10 to 100
CCOC(=O)c1c(CNC(=N)N)n(C)c2cc(-c3cccc4c(C)cccc34)ccc12 [SYY-C081]	< 1000	10 to 100
CCOC(=O)c1c(CNC(=N)N)n(-c2ccccc2)c2cc(-c3cccc4ccccc34)ccc12 [SYY-C082]	< 1000	10 to 100
CCOC(=O)c1c(CNC(=N)N)n(C)c2cc(-c3ccc(Cl)c4ccccc34)ccc12 [SYY-C083]	1000 to 10000	100 to 250
CCOC(=O)c1c(CNC(=N)N)n(C)c2cc(-c3cccc4c(Cl)cccc34)ccc12 [SYY-C084]	< 1000	10 to 100
CCOC(=O)c1c(CNC(=N)N)n(C)c2cc(-c3cc(C)cc4ccccc34)ccc12 [SYY-C085]	< 1000	10 to 100
CCOC(=O)c1c(CNC(=N)N)n(C)c2cc(C3=CCOc4ccccc43)ccc12 [SYY-C086]	< 1000	10 to 100
CCOC(=O)c1c(CNC(=N)N)n(C)c2cc(-c3cccc4ccc(C)cc34)ccc12 [SYY-C087]	10000 to 100000	100 to 250
CCOC(=O)c1c(CNC(=N)N)n(C)c2cc(-c3c4c(cc5c3CCCC5)CCCC4)ccc12 [SYY-C088]	10000 to 100000	100 to 250
CCOC(=O)c1c(CNC(=N)N)n(C)c2cc(-c3cccc4c(F)cccc34)ccc12 [SYY-C089]	< 1000	10 to 100
CCOC(=O)c1c(CNC(=N)N)n(C)c2cc(-c3cc(Cl)cc4ccccc34)ccc12 [SYY-C090]	1000 to 10000	100 to 250
CCOC(=O)c1c(CNC(=N)N)n(C)c2cc(-c3cccc4cccc(C)c34)ccc12 [SYY-C091]	< 1000	10 to 100

Compound	Kd [1] [nM]	minimal effective concentration [2] [µM]
CCOC(=O)c1c(CNC(=N)N)n(C)c2cc(-c3cc(F)cc4ccccc34)ccc12 [SYY-C092]	10000 to 100000	100 to 250
CCOC(=O)c1c(CNC(=N)N)n(C)c2cc(-c3cccc4cc(Cl)ccc34)ccc12 [SYY-C093]	< 1000	10 to 100
CCOC(=O)c1c(CNC(=N)N)n(C)c2cc(-c3cccc4cccc(Cl)c34)ccc12 [SYY-C095]	10000 to 100000	10 to 100
CCOC(=O)c1c(CNC(=N)N)n(C)c2cc(-c3cccc4cccc(F)c34)ccc12 [SYY-C096]	< 1000	10 to 100
CCOC(=O)c1c(CNC(=N)N)n(C)c2cc(-c3cccc4ccc(F)cc34)ccc12 [SYY-C097]	10000 to 100000	10 to 100
CCOC(=O)c1c(CNC(=N)N)n(C)c2cc(-c3cccc4cc(F)ccc34)ccc12 [SYY-C098]	< 1000	10 to 100
CNC(=O)c1c(CNC(=N)N)n(C)c2cc(-c3cccc4ccccc34)ccc12 [SYY-C099]	< 1000	10 to 100
CN(C)C(=O)c1c(CNC(=N)N)n(C)c2cc(-c3cccc4ccccc34)ccc12 [SYY-C100]	1000 to 10000	100 to 250
Cn1c(CNC(=N)N)c(C(N)=O)c2ccc(-c3cccc4ccccc34)cc21 [SYY-C101]	< 1000	10 to 100
Cn1c(CNC(=N)N)c(C#N)c2ccc(-c3cccc4ccccc34)cc21 [SYY-C102]	< 1000	10 to 100
CCOC(=O)c1c(CNC(=N)N)n(C)c2cc(-c3cccc4ccccc34)c(OC)cc12 [SYY-C103]	1000 to 10000	100 to 250
CCOC(=O)c1c(CNC(=N)N)n(C)c2cc(-c3cccc4ccccc34)c(Cl)cc12 [SYY-C104]	< 1000	10 to 100
CC(=O)Nc1c(CNC(=N)N)n(C)c2cc(-c3cccc4ccccc34)ccc12 [SYY-C105]	< 1000	10 to 100
CCOC(=O)c1c(CNC(=N)N)oc2cc(-c3cccc4ccccc34)ccc12 [SYY-C106]	1000 to 10000	100 to 250
CCOC(=O)c1c(CNC(=N)N)sc2ccc(-c3cccc4ccccc34)cc12 [SYY-C107]	< 1000	10 to 100
CCOC(=O)c1c(CNC(=N)N)sc2cc(-c3cccc4ccccc34)ccc12 [SYY-C108]	10000 to 100000	100 to 250
CCOC(=O)c1c(CNC(=N)N)n(C)c2cc(-c3cccc4ccccc34)c(Br)cc12 [SYY-C109]	< 1000	10 to 100
CCOC(=O)c1c(CNC(=N)N)n(C)c2cc(-c3cccc4ccccc34)c(OC3CCCC3)cc12 [SYY-C110]	< 1000	10 to 100
CCOC(=O)c1c(CNC(=N)N)n(C)c2cc(-c3cccc4ccccc34)c(C3=CCCC3)cc12 [SYY-C111]	1000 to 10000	100 to 250
CCOC(=O)c1c(CNC(=N)N)n(C)c2cc(-c3cccc4ccccc34)c(C3CC3)cc12 [SYY-C112]	< 1000	10 to 100
CCOC(=O)c1c(CNC(=N)N)n(C)c2cc(-c3cccc4ccccc34)c(C3CCCC3)cc12 [SYY-C113]	< 1000	10 to 100
CCOC(=O)c1c(CNC(=N)N)n(C)c2cc(OC)c(-c3cccc4ccccc34)cc12 [SYY-C114]	10000 to 100000	10 to 100
CCOC(=O)c1c(CNC(=N)N)n(C)c2cc(OC3CCCC3)c(-c3cccc4ccccc34)cc12 [SYY-C115]	< 1000	10 to 100
CCOC(=O)c1c(CNC(=N)N)n(C)c2cc(C3=CCCC3)c(-c3cccc4ccccc34)cc12 [SYY-C116]	< 1000	10 to 100
CCOC(=O)c1c(CNC(=N)N)n(C)c2cc(C3CCCC3)c(-c3cccc4ccccc34)cc12 [SYY-C117]	10000 to 100000	100 to 250
CCOC(=O)c1c(CNC(=N)N)n(C)c2cc(Cl)c(-c3cccc4ccccc34)cc12 [SYY-C118]	< 1000	10 to 100
CCOC(=O)c1c(CNC(=N)N)n(C)c2cc(Br)c(-c3cccc4ccccc34)cc12 [SYY-C119]	< 1000	10 to 100
